Reference: patent US7662832B2, “Pyrrolo[2,3-c]pyridine derivatives and processes for the preparation thereof” (priority 2004, dated 2010)
Where a name gives a salt, the structure may show the parent alone.

The molecules below were run against Proton Pump (H^+/K^+-ATPase) (Sus scrofa, UniProt P19156) (assay: Inhibitory effects on proton pump (H^+/K^+-ATPase) activity). Conditions: hog gastric vesicles; K^+ stimulated H^+/K^+-ATPase activity; 30 minutes at 37° C.
Type: biochemical

Proton Pump (H^+/K^+-ATPase), sequence (P19156 2-1034 limits assumed): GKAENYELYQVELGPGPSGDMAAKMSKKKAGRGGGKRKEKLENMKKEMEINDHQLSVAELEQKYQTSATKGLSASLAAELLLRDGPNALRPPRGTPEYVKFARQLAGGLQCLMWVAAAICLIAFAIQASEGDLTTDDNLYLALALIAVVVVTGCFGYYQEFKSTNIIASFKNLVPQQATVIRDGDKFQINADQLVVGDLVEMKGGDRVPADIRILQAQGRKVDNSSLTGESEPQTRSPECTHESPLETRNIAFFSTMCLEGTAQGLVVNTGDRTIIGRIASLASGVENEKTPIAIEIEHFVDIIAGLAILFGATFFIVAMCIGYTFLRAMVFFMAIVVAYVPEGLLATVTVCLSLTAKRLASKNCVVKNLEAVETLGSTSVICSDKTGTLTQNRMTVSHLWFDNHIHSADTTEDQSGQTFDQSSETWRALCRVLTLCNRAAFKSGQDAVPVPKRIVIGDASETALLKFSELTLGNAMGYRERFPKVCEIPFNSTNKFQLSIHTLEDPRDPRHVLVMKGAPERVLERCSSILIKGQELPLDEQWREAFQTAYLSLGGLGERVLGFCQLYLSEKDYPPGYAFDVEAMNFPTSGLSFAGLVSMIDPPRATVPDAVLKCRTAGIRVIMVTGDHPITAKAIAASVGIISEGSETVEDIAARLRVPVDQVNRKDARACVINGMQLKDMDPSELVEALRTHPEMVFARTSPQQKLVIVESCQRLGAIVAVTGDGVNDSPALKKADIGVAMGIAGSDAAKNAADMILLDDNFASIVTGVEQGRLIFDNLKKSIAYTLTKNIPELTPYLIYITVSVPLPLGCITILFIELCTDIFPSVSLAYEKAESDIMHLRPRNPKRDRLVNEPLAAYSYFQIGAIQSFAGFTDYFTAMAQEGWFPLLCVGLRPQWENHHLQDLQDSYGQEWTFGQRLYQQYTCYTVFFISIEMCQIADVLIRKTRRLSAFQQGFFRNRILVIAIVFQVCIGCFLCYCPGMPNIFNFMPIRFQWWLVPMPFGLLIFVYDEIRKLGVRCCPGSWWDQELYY
Proton Pump (H^+/K^+-ATPase), sequence (P18434 whole entry partner): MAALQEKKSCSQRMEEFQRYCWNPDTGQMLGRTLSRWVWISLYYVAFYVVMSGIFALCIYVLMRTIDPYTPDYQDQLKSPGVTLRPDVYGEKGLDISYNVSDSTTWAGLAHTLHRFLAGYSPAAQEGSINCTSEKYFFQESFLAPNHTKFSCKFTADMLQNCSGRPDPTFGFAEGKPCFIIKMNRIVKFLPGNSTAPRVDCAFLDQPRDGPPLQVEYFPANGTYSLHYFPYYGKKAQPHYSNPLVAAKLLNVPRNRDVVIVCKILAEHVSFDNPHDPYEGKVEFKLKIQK

| IC50 [nM] | Molecule |
| --- | --- |
| 424 | CC=Cn1c(C)c(C)c2ccnc(CNc3ccc(F)cc3)c21 [Example 108, N-(2,3-dimethyl-1-propenyl-1H-pyrrolo[2,3-c]pyridin-7-ylmethyl)-4-fluorophenylamine hydrochloride] |
| 240 | C=CCn1c(C)c(C)c2ccnc(N(C)Cc3ccc(F)cc3)c21 [Example 140, 1-allyl-7-[N-(4-fluorobenzyl)-N-methyl]amino-2,3-dimethyl-1H-pyrrolo[2,3-c]pyridine hydrochloride] |
| 29 | C=CCn1c(C)c(C)c2cc(C(=O)NCCO)nc(N3CCc4ccccc4C3)c21 [Example 837, 1-allyl-7-(3,4-dihydro-1H-isoquinolin-2-yl)-2,3-dimethyl-N-(2-hydroxyethyl)-1H-pyrrolo[2,3-c]pyridin-5-carboxamide hydrochloride] |
| 340 | CCCn1c(C)c(C)c2ccnc(N(C)Cc3ccc(F)cc3)c21 [Example 150, 7-[N-(4-fluorobenzyl)-N-methyl]amino-2,3-dimethyl-1-propyl-1H-pyrrolo[2,3-c]pyridine hydrochloride] |
| 231 | Cc1ccc(Cn2c(C)c(C)c3ccnc(-c4ccc(C)cc4)c32)cc1 [Example 279, 2,3-dimethyl-1-(4-methylbenzyl)-7-(p-tolyl)-1H-pyrrolo[2,3-c]pyridine hydrochloride] |
| 380 | CCC1c2ccccc2CCN1c1nccc2c(C)c(C)n(Cc3ccc(OC)cc3)c12 (stereo not drawn) [Example 583, 1-ethyl-2-[1-(4-methoxybenzyl)-2,3-dimethyl-1H-pyrrolo[2,3-c]pyridin-7-yl]-1,2,3,4-tetrahydroisoquinoline hydrochloride] |
| 242 | COc1cccc(Cn2c(C)c(C)c3cc(C(=O)n4ccnc4)nc(N4CCc5ccccc5C4)c32)c1 [Example 841, [7-(3,4-dihydro-1H-isoquinolin-2-yl)-1-(3-methoxybenzyl)-2,3-dimethyl-1H-pyrrolo[2,3-c]pyridin-5-yl]-(imidazol-1-yl)-methanone hydrochloride] |
| 52 | Cc1c(C)n(Cc2ccccc2)c2c(N3CCc4ccccc4C3)nc(C(=O)N3CCCCC3)cc12 [Example 788, [1-benzyl-7-(3,4-dihydro-1H-isoquinolin-2-yl)-2,3-dimethyl-1H-pyrrolo[2,3-c]pyridin-5-yl]-(piperidin-1-yl)-methanone hydrochloride] |
| 39 | Cc1c(C)n(CC2CC2)c2c(N3CCc4ccccc4C3)nc(C(=O)N3CCOCC3)cc12 [Example 778, [1-cyclopropylmethyl-7-(3,4-dihydro-1H-isoquinolin-2-yl)-2,3-dimethyl-1H-pyrrolo[2,3-c]pyridin-5-yl]-(morpholin-4-yl)-methanone hydrochloride] |
| 43 | Cc1c(C)n(Cc2cccc(F)c2)c2c(N3CCc4ccccc4C3)nc(CN3CCOCC3)cc12 [Example 872, 2-[1-(3-fluorobenzyl)-2,3-dimethyl-5-(morpholin-4-ylmethyl)-1H-pyrrolo[2,3-c]pyridin-7-yl]-1,2,3,4-tetrahydroisoquinoline hydrochloride] |
| 82 | COCCn1c(C)c(C)c2ccnc(N3CCc4cc(F)ccc4C3C)c21 (stereo not drawn) [Example 564, 6-fluoro-2-[1-(2-methoxyethyl)-2,3-dimethyl-1H-pyrrolo[2,3-c]pyridin-7-yl]-1-methyl-1,2,3,4-tetrahydroisoquinoline hydrochloride] |
| 133 | CCCn1c(C)c(C)c2ccnc(NCc3ccc(F)cc3)c21 [Example 228, 7-(4-fluorobenzylamino)-2,3-dimethyl-1-propyl-1H-pyrrolo[2,3-c]pyridine hydrochloride] |
| 25 | Cc1c(C)n(Cc2ccccc2)c2c(CN(C)c3ccc(F)cc3)nccc12 [Example 111, N-(1-benzyl-2,3-dimethyl-1H-pyrrolo[2,3-c]pyridin-7-ylmethyl)-N-(4-fluorophenyl)-methylamine hydrochloride] |
| 110 | CSc1ccc(-c2nccc3c(C)c(C)n(Cc4ccc(C)cc4)c23)cc1 [Example 267, 2,3-dimethyl-1-(4-methylbenzyl)-7-(4-methylsulfanylphenyl)-1H-pyrrolo[2,3-c]pyridine hydrochloride] |
| 180 | COc1cccc(Cn2c(C)c(C)c3ccnc(COc4ccc(C)cc4)c32)c1 [Example 16, 1-(3-methoxybenzyl)-2,3-dimethyl-7-(p-tolyloxymethyl)-1H-pyrrolo[2,3-c]pyridine hydrochloride] |
| 99 | Cc1[nH]c2c(-c3ccc4ccccc4c3)nccc2c1C [Example 410, 2,3-dimethyl-7-(naphthalen-2-yl)-1H-pyrrolo[2,3-c]pyridine sodium] |
| 1140 | Cc1c(C)n(Cc2ccc(OC(F)(F)F)cc2)c2c(N3CCc4ccccc4C3)nccc12 [Example 479, 1-(4-trifluoromethoxybenzyl)-7-(1,2,3,4-tetrahydroisoquinolin-2-yl)-2,3-dimethyl-1H-pyrrolo[2,3-c]pyridine hydrochloride] |

| IC50 [nM] | Molecule |
| --- | --- |
| 36 | Cc1c(C)n(Cc2cccc(Cl)c2)c2c(N3CCc4ccccc4C3)nc(-c3nnnn3C)cc12 [Example 853, 2-[1-(3-chlorobenzyl)-2,3-dimethyl-5-(1-methyl-1H-tetrazol-5-yl)-1H-pyrrolo[2,3-c]pyridin-7-yl]-1,2,3,4-tetrahydroisoquinoline] |
| 134 | Cc1c(C)n(Cc2ccc(C(C)(C)C)cc2)c2c(N3CCc4ccccc4C3)nc(C(=O)N3CCN(C)CC3)cc12 [Example 835, [1-(4-tert-butylbenzyl)-7-(3,4-dihydro-1H-isoquinolin-2-yl)-2,3-dimethyl-1H-pyrrolo[2,3-c]pyridin-5-yl]-(4-methylpiperazin-1-yl)-methanone hydrochloride] |
| 3 | C=CCn1c(C)c(C)c2cc(C(=O)N3CCNCC3)nc(N3CCc4ccccc4C3)c21 [Example 811, [1-allyl-7-(3,4-dihydro-1H-isoquinolin-2-yl)-2,3-dimethyl-1H-pyrrolo[2,3-c]pyridin-5-yl]-(piperazin-1-yl)-methanone hydrochloride] |
| 379 | CCc1c(C)c2ccnc(N3CCc4ccccc4C3)c2n1C [Example 609, 2-ethyl-1,3-dimethyl-7-(1,2,3,4-tetrahydroisoquinolin-2-yl)-1H-pyrrolo[2,3-c]pyridine hydrochloride] |
| 230 | COCn1c(C)c(C)c2ccnc(N3CCc4ccccc4C3)c21 [Example 496, 1-methoxymethyl-7-(1,2,3,4-tetrahydroisoquinolin-2-yl)-2,3-dimethyl-1H-pyrrolo[2,3-c]pyridine hydrochloride] |
| 9 | Cc1c(C)n(CC2CC2)c2c(N3CCc4ccccc4C3)nc(C(=O)N3CCNCC3)cc12 [Example 816, [1-cyclopropylmethyl-7-(3,4-dihydro-1H-isoquinolin-2-yl)-2,3-dimethyl-1H-pyrrolo[2,3-c]pyridin-5-yl]-(piperazin-1-yl)-methanone hydrochloride] |
| 210 | COc1ccc(-c2nccc3c(C)c(C)n(Cc4ccccc4)c23)cc1 [Example 350, 1-benzyl-7-(4-methoxyphenyl)-2,3-dimethyl-1H-pyrrolo[2,3-c]pyridine hydrochloride] |
| 58 | Cc1c(C)n(Cc2ccccc2)c2c(COc3ccc(F)cc3)nccc12 [Example 3, 1-benzyl-7-(4-fluorophenoxymethyl)-2,3-dimethyl-1H-pyrrolo[2,3-c]pyridine hydrochloride] |
| 65 | COCCn1c(C)c(C)c2ccnc(N3CCc4ccccc4C3)c21 [Example 499, 1-(2-methoxyethyl)-7-(1,2,3,4-tetrahydroisoquinolin-2-yl)-2,3-dimethyl-1H-pyrrolo[2,3-c]pyridine hydrochloride] |
| 260 | C=CCn1c(C)c(C)c2ccnc(NCc3ccccc3)c21 [Example 176, 1-allyl-7-benzylamino-2,3-dimethyl-1H-pyrrolo[2,3-c]pyridine hydrochloride] |
| 366 | COCCn1c(C)c(C)c2cc(C(=O)O)nc(N3CCc4ccccc4C3)c21 [Example 734, 7-(3,4-dihydro-1H-isoquinolin-2-yl)-1-(2-methoxyethyl)-2,3-dimethyl-1H-pyrrolo[2,3-c]pyridin-5-carboxylic acid] |
| 130 | Cc1c(C)n(Cc2ccccc2)c2c(N3CCc4ccc(F)cc4C3C)nccc12 (stereo not drawn) [Example 547, 2-(1-benzyl-2,3-dimethyl-1H-pyrrolo[2,3-c]pyridin-7-yl)-7-fluoro-1-methyl-1,2,3,4-tetrahydroisoquinoline hydrochloride] |
| 287 | Cc1c(C)n(Cc2cccc(Cl)c2)c2c(N3CCc4ccccc4C3)nc(N)cc12 [Example 845, 1-(3-chlorobenzyl)-7-(3,4-dihydro-1H-isoquinolin-2-yl)-2,3-dimethyl-1H-pyrrolo[2,3-c]pyridin-5-amine hydrochloride] |
| 290 | Cc1c(C)n(Cc2ccccc2)c2c(C=Cc3ccccc3)nccc12 [Example 418, 1-benzyl-2,3-dimethyl-7-styryl-1H-pyrrolo[2,3-c]pyridine hydrochloride] |
| 117 | Cc1c(C)n(Cc2ccccc2)c2c(N3CCc4ccccc4C3)nc(C(=O)O)cc12 [Example 733, 1-benzyl-7-(3,4-dihydro-1H-isoquinolin-2-yl)-2,3-dimethyl-1H-pyrrolo[2,3-c]pyridin-5-carboxylic acid] |
| 92 | CCCn1c(C)c(C)c2ccnc(NCc3ccccc3C)c21 [Example 230, 2,3-dimethyl-7-(2-methylbenzylamino)-1-propyl-1H-pyrrolo[2,3-c]pyridine hydrochloride] |
| 46 | Cc1ccc(Cn2c(C)c(C)c3ccnc(CN(C)c4ccc(F)cc4)c32)cc1 [Example 117, N-[2,3-dimethyl-1-(4-methylbenzyl)-1H-pyrrolo[2,3-c]pyridin-7-ylmethyl]-N-(4-fluorophenyl)-methylamine hydrochloride] |

| Molecule | IC50 [nM] |
| --- | --- |
| [7-(3,4-dihydro-1H-isoquinolin-2-yl)-1-(3-fluorobenzyl)-2,3-dimethyl-1H-pyrrolo[2,3-c]pyridin-5-yl]-methylamine hydrochloride [Example 888] | 20 |
| C=CCn1c(C)c(C)c2ccnc(N3CCc4ccccc4C3)c21 [Example 494, 1-allyl-7-(1,2,3,4-tetrahydroisoquinolin-2-yl)-2,3-dimethyl-1H-pyrrolo[2,3-c]pyridine hydrobromide] | 4 |
